pEC50, pIC50: −log10 of the molar value. Where two headings read alike, the source gives them in different places.
What was measured:
[1] = test system: pseudo islets (dispersed islet cells); assay: cells; type: cell-based, Sprague Dawley rats; settings: for pEC50: 8 mM glucose, read-out: EC50 on insulin release; for pIC50: dose-dependent, read-out: IC50 of inhibition of glucose-stimulated insulin release
Description: Pancreata from four Sprague Dawley rats were divided into small pieces approximately 1 mm^2 or smaller in size. The tissue was then rinsed three times with Hanks-Hepes buffer (127 mM NaCl, 5.4 mM KCl, 0.34 mM Na2HPO4, 4.4 mM KH2PO4, 20 mM HEPES, 1.2 mM CaCl2/5 mM glucose), and digested with collagenase (Liberase, 0.25 mg/ml, Roche Diagnostic Corp., Indianapolis, Ind.) at 37° C. in a water bath shaker for 10 minutes.
The digested pancreata tissue was rinsed three times with 50 ml of Hanks-Hepes buffer to remove the collagenase. The tissue pellet was then filtered through a 250 μm filter and the filtrate was mixed with 16 ml of 27% Ficoll (Sigma, St. Louis, Mo.) w/v in Hanks-Hepes buffer. Three layers of Ficoll (23%, 20.5%, and 11%, respectively; 8 ml of each concentration) were then loaded on top of the mixture of islet tissue in 27% Ficoll to form a gradient.
The Ficoll gradient was then centrifuged at 1,600 rpm for 10 minutes at room temperature. The pancreatic islets were concentrated at the interphase between 11% and 20.5%, and between 20.5% and 23% depending on the size of islets. The islets were collected from the two interphases and rinsed twice with Ca^++-free Hanks-Hepes buffer. The islets were then suspended in 5 ml Ca^++-free Hanks-Hepes buffer containing 1 mM EDTA and incubated for 8 minutes at room temperature.
Trypsin and DNAse I were added to the islet suspension for a final concentration of 25 μg/ml and 2 μg/ml, respectively. This suspension was incubated with shaking at 30° C. for 10 minutes. The trypsin digestion was stopped by adding 40 ml RPMI 1640 (GIBCO Life Technologies, Invitrogen, Carlsbad, Calif.) with 10% FBS. The trypsin digested islet cells were then filtered through a 63 μm nylon filter (PGC Scientific, Frederick, Md.) to remove large cell clusters.
The dispersed islet cells were then washed, counted using hemacytometer under the microscope, and seeded into “V-bottom” 96-well plates (2,500 cells per well). However, a range of 1,000 to 10,000 cells per well may used. The dispersed islet cell suspension was then centrifuged at 1,000 rpm for 5 minutes. The Hanks-Hepes buffer was removed and replaced with 200 μl RPMI 1640 medium containing 10% FBS, 1% Penicillin-Streptomycin, and 2 mM L-glutamine. Next, the 96-well plates were centrifuged at 1,000 rpm for 5 minutes to collect the dispersed islet cells concentrated at the V-bottom of the plate forming pseudo islets. These pseudo islets were then cultured overnight in a cell culture incubator at 37° C. with 5% CO2, and then used for assays.
(§1) Pseudo islets were prepared by the method described in Example 1. Following an overnight incubation, the RPMI 1640 medium was removed and replaced by 100 μl Krebs-Ringer-Hepes buffer (115 mM NaCl, 5.0 mM KCl, 24 mM NaHCO3, 2.2 mM CaCl2, 1 mM MgCl2, 20 mM HEPES, 0.25% BSA, 0.002% Phenol Red, pH 7.35-7.40). The cell suspension was then centrifuged for 5 minutes at 1,000 rpm to pellet the dispersed islet cells.
(§2) Pseudo islets in 96-well plates were incubated in a water bath at 37° C. continuously gassed with 95% O2/5% CO2 for pre-incubation for 30 minutes. The pre-incubation buffer was removed and replaced with 50 μl incubation buffer (Krebs-Ringer-Hepes buffer, pH 7.35-7.40) containing various test substrates.
The 96-well plate was centrifuged again at 1,000 rpm for 5 minutes to form pseudo islets. These pseudo islets in 96-well plates were statically incubated in a water bath at 37° C. continuously gassed with 95% O2/5% CO2 for 60 minutes. The incubation buffer (25 μl) was collected after the 60-minute incubation and used for an insulin content assay (ELISA assay, ALPCO, N.H.).

[2] = test system: pseudo islets co-cultured with fibroblasts; assay: Insulin release from pseudo islets co-cultured with fibroblasts; type: cell-based, Sprague Dawley rats; settings: increasing amounts of GLP-1
Description: Dispersed islet cells (prepared by the method described in Example 1) were washed with regular RPMI 1640 medium with 10% FBS, counted using hemacytometer under the microscope, and seeded into “V-bottom” 96-well plates with fibroblasts (2,500 islet cells and 1,250 fibroblasts cells per well). The cell suspension was then centrifuged at 1,000 rpm for 5 minutes to collect the dispersed islet cells concentrated at the V-bottom of the plate forming pseudo islets. These pseudo islets were then co-cultured with the fibroblasts cells overnight in a cell culture incubator at 37° C. with 5% CO2, and then used for assays.
as §1
as §2, with “substrates. […]” for “substrates.”

`CC(=O)OCC[N+](C)(C)C` [Ach, Acetylcholine] gave a pEC50 ([1]; Rattus norvegicus) of 5.00.

For `CC[C@H](C)[C@H](NC(=O)[C@H](Cc1ccccc1)NC(=O)[C@H](CCC(=O)O)NC(=O)[C@H](CCCCN)NC(=O)[C@H](C)NC(=O)[C@H](C)NC(=O)[C@H](CCC(N)=O)NC(=O)CNC(=O)[C@H](CCC(=O)O)NC(=O)[C@H](CC(C)C)NC(=O)[C@H](Cc1ccc(O)cc1)NC(=O)[C@H](CO)NC(=O)[C@H](CO)NC(=O)[C@@H](NC(=O)[C@H](CC(=O)O)NC(=O)[C@H](CO)NC(=O)[C@@H](NC(=O)[C@H](Cc1ccccc1)NC(=O)[C@@H](NC(=O)CNC(=O)[C@H](CCC(=O)O)NC(=O)[C@H](C)NC(=O)[C@@H](N)Cc1c[nH]cn1)[C@@H](C)O)[C@@H](C)O)C(C)C)C(=O)N[C@@H](C)C(=O)N[C@@H](Cc1c[nH]c2ccccc12)C(=O)N[C@@H](CC(C)C)C(=O)N[C@H](C(=O)N[C@@H](CCCCN)C(=O)NCC(=O)N[C@@H](CCCNC(=N)N)C(N)=O)C(C)C` [GLP-1], the “GLP-1 mediated insulin secretion on co-culture with fibroblasts” value [2] was “enhanced”.

Work on `CC(C)Cn1c(=O)n(C)c(=O)c2[nH]cnc21` [IBMX] yielded a pEC50 [1] of 4.66.

Work on `NC[C@H](O)c1ccc(O)c(O)c1` [NE, norepinephrine] yielded a pIC50 ([1]; Rattus norvegicus) of 7.25.

Compound `C=C[C@@]1(C)CC(=O)[C@]2(O)[C@@]3(C)[C@@H](O)CCC(C)(C)[C@@H]3[C@H](O)[C@H](OC(C)=O)[C@@]2(C)O1` [forskolin] has a pEC50 ([1]; Rattus norvegicus) of 6.05.

Work on `COc1ccc(Cl)cc1C(=O)NCCc1ccc(S(=O)(=O)NC(=O)NC2CCCCC2)cc1` [glybenclamide] yielded a pEC50 ([1]; Rattus norvegicus) of 6.43.

For `C[C@H](N)C(=O)NCC(=O)N[C@H]1CSSC[C@@H](C(=O)O)NC(=O)[C@H](CO)NC(=O)[C@H]([C@@H](C)O)NC(=O)[C@H](Cc2ccccc2)NC(=O)[C@H]([C@@H](C)O)NC(=O)[C@H](CCCCN)NC(=O)[C@H](Cc2c[nH]c3ccccc23)NC(=O)[C@H](Cc2ccccc2)NC(=O)[C@H](Cc2ccccc2)NC(=O)[C@H](CC(N)=O)NC(=O)[C@H](CCCCN)NC1=O` [somatostain], the pIC50 [1] was 9.05.

Source: patent publication US20040005299A1, “Method for producing pseudo islets” (Bayer Pharmaceuticals Corporation, priority 2002, published 2004)
